ChEMBL document CHEMBL4265922, “Synthesis and antiproliferative activity of 6,7-disubstituted-4-phenoxyquinoline derivatives bearing the 1,8-naphthyridin-2-one moiety” (Eur J Med Chem, 2018)
pIC50: −log10 of the molar value.

Tests used:
MCF7 = experiment: cells; details: Homo sapiens, MCF7, 72 h
HepG2 [1] = experiment: cells; details: Homo sapiens, HepG2, 72 h
A549 = experiment: cells; details: Homo sapiens, A549, 72 h
Description: Antiproliferative activity against human A549 cells after 72 hrs by MTT assay

[2] = target: Hepatocyte growth factor receptor (Homo sapiens, UniProt P08581); experiment: Inhibition of c-MET (unknown origin) using FAM-labeled peptide as substrate incubated for 10 mins followed by substrate addition by HTRF assay
Chain of Hepatocyte growth factor receptor (P08581 whole entry): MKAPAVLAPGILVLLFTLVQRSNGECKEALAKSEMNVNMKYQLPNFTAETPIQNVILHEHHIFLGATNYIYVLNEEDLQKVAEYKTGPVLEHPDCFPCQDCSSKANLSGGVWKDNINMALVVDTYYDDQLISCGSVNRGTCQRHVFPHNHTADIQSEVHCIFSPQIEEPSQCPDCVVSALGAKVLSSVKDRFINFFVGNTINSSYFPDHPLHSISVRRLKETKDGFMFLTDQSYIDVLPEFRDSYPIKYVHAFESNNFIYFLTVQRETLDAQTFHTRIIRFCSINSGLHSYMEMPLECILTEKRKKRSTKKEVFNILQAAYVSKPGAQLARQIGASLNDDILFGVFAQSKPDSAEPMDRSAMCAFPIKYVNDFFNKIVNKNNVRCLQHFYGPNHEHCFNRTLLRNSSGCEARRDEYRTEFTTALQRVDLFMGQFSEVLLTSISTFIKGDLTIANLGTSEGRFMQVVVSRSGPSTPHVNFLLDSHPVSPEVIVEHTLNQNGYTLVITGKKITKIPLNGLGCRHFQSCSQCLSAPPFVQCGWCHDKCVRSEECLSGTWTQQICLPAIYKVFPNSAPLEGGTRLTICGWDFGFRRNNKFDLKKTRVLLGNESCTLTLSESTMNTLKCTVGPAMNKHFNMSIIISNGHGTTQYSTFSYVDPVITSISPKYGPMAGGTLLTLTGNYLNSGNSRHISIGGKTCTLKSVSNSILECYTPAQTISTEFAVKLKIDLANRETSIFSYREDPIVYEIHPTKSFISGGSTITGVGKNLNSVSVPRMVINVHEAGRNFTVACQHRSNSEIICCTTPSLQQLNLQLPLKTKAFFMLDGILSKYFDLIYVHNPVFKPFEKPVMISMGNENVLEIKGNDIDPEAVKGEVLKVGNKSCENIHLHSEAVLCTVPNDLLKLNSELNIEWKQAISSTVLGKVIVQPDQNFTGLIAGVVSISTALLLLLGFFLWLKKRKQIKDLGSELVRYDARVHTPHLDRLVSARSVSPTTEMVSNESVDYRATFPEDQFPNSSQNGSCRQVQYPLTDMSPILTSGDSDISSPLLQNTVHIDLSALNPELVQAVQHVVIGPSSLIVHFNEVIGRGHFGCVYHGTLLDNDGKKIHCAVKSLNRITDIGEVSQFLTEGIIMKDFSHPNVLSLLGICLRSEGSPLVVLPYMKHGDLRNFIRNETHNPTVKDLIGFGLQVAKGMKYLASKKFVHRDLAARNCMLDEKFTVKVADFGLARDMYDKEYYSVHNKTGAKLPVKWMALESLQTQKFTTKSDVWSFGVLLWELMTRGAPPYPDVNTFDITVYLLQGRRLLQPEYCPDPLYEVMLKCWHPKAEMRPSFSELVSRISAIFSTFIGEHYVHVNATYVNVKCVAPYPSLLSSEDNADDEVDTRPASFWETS

[3] = target: Platelet-derived growth factor receptor alpha (Homo sapiens, UniProt P16234); experiment: Inhibition of PDGFRalpha (unknown origin) using FAM-labeled peptide as substrate incubated for 10 mins followed by substrate addition by HTRF assay
[4] = target: Epidermal growth factor receptor (Homo sapiens, UniProt P00533); experiment: Inhibition of EGFR (unknown origin) using FAM-labeled peptide as substrate incubated for 10 mins followed by substrate addition by HTRF assay
Chain of Epidermal growth factor receptor (P00533 whole entry): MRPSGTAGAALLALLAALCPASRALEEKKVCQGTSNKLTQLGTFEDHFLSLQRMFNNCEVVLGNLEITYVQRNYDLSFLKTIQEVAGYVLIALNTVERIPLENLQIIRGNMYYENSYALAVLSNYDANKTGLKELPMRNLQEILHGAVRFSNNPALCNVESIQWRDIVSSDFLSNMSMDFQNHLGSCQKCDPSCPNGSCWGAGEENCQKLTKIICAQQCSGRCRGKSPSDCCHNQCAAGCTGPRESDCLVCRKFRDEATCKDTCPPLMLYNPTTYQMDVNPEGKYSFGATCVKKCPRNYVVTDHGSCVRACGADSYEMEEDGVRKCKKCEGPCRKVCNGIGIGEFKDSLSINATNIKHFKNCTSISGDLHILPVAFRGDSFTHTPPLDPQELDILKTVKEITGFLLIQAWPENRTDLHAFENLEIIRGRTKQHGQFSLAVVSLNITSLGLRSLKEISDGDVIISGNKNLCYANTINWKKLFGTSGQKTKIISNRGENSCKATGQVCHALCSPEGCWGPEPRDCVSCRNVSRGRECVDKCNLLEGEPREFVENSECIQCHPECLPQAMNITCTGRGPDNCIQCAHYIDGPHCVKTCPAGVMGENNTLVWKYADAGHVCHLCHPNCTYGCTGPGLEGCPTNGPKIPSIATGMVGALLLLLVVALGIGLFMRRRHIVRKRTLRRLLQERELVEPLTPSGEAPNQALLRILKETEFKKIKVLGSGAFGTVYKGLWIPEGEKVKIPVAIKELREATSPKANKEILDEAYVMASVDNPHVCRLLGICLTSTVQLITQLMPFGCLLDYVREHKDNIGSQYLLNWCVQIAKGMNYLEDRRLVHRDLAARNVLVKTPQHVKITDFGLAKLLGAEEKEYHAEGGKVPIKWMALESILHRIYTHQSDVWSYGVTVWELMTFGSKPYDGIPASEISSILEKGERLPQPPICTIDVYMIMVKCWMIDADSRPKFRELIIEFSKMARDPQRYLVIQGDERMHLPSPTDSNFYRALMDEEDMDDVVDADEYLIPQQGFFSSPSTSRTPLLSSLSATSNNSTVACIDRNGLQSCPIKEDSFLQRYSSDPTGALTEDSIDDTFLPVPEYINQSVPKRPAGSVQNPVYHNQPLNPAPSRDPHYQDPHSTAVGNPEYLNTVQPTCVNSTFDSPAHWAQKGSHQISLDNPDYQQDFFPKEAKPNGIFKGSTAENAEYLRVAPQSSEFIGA

[5] = target: Platelet-derived growth factor receptor beta (Homo sapiens, UniProt P09619); experiment: Inhibition of PDGFRbeta (unknown origin) using FAM-labeled peptide as substrate incubated for 10 mins followed by substrate addition by HTRF assay
Chain of Platelet-derived growth factor receptor beta (P09619 whole entry): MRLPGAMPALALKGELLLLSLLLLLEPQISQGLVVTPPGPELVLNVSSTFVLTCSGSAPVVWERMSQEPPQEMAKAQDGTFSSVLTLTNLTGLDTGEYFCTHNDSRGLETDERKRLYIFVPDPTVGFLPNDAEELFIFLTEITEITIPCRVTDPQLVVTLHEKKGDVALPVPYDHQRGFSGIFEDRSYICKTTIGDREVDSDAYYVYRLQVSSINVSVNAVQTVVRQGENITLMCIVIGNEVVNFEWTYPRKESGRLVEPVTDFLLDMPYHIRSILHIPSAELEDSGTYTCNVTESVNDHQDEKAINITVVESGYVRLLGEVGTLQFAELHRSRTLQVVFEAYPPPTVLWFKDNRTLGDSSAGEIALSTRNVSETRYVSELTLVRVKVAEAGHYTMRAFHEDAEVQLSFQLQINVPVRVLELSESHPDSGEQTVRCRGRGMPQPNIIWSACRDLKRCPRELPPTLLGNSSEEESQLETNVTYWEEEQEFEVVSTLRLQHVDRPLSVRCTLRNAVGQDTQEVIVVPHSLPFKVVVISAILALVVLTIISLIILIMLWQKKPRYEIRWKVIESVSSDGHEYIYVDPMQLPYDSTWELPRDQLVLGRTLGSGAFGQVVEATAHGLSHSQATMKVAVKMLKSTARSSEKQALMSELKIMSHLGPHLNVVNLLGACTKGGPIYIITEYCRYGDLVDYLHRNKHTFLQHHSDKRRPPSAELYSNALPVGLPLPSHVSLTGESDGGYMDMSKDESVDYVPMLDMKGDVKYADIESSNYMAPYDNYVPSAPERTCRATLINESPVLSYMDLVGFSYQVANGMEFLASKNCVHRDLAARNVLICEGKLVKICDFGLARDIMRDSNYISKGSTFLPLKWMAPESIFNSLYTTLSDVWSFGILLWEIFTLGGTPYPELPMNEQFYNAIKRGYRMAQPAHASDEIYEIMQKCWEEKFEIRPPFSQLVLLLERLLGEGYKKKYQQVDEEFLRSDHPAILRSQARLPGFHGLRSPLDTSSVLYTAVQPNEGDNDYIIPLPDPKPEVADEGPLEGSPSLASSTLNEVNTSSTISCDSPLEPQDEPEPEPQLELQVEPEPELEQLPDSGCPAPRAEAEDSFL

[6] = target: ALK tyrosine kinase receptor (Homo sapiens, UniProt Q9UM73); experiment: Inhibition of ALK (unknown origin) using FAM-labeled peptide as substrate incubated for 10 mins followed by substrate addition by HTRF assay
[7] = target: Vascular endothelial growth factor receptor 3 (Homo sapiens, UniProt P35916); experiment: Inhibition of FLT4 (unknown origin) using FAM-labeled peptide as substrate incubated for 10 mins followed by substrate addition by HTRF assay
Chain of Vascular endothelial growth factor receptor 3 (P35916 whole entry): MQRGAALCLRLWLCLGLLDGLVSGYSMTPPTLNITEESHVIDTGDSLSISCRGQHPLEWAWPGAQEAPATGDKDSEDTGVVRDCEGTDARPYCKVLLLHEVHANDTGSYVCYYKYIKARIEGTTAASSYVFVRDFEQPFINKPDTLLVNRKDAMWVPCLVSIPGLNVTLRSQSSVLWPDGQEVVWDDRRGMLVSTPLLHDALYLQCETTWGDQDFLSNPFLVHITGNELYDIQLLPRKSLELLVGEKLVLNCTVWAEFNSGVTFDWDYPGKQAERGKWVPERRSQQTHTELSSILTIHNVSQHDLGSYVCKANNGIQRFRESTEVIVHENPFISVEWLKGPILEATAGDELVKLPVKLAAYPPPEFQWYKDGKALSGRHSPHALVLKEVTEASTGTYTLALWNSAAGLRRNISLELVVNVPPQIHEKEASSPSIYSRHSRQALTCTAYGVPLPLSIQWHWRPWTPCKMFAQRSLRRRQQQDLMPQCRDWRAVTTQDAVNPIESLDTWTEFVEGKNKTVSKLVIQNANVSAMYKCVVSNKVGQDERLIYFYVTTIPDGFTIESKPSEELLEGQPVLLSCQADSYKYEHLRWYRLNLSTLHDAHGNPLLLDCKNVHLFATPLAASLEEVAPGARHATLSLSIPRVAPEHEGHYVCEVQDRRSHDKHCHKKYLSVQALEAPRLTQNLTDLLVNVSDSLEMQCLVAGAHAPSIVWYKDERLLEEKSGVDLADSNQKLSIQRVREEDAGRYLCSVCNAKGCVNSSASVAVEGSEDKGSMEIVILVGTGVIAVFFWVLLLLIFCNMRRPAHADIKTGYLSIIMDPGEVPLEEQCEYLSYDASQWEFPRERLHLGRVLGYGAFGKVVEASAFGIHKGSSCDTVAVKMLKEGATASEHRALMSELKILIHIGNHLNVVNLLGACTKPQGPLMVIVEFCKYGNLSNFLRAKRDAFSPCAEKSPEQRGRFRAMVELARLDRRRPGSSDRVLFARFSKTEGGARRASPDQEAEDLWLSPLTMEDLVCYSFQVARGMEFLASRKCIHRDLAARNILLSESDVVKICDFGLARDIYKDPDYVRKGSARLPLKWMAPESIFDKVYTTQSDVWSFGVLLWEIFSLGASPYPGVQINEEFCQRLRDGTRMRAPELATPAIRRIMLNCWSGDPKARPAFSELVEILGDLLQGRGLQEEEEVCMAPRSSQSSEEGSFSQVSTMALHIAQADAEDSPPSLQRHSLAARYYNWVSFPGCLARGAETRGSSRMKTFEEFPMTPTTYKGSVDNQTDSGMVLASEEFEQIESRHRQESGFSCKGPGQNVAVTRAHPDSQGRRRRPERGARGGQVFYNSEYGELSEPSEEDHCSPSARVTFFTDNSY

[8] = target: T1, Receptor-type tyrosine-protein kinase FLT3 (Homo sapiens, UniProt P36888); experiment: Inhibition of FLT3 (unknown origin) using FAM-labeled peptide as substrate incubated for 10 mins followed by substrate addition by HTRF assay
T1 sequence (P36888 whole entry): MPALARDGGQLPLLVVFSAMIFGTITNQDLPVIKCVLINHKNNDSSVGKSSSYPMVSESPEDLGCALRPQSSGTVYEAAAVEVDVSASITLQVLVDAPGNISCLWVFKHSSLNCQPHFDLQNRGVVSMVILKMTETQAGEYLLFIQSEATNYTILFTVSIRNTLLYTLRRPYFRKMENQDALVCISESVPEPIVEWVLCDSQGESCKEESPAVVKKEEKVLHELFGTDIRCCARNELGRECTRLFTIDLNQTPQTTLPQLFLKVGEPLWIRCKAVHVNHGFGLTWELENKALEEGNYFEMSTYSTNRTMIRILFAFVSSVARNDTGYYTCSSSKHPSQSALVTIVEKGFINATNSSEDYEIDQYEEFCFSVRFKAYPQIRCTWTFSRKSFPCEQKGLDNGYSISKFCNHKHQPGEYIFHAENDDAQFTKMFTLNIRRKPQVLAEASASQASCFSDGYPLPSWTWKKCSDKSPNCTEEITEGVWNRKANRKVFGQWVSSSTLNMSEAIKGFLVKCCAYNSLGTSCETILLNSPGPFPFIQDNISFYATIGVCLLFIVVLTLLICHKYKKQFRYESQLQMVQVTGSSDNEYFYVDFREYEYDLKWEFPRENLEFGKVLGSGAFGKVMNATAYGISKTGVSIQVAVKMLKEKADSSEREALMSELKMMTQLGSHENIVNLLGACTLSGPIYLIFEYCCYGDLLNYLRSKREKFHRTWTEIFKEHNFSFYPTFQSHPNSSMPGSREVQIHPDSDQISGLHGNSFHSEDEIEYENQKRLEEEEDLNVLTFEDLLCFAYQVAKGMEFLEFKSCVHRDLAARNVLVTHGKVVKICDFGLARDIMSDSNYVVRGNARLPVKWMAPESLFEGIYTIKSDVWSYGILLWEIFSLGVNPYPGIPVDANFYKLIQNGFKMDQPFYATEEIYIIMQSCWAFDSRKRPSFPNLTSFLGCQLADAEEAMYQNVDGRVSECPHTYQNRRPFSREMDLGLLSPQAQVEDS

[9] = target: Mast/stem cell growth factor receptor Kit (Homo sapiens, UniProt P10721); experiment: Inhibition of c-KIT (unknown origin) using FAM-labeled peptide as substrate incubated for 10 mins followed by substrate addition by HTRF assay
HepG2 [10] = experiment: Induction of apoptosis in human HepG2 cells assessed as late apoptotic cells at 0.5 uM after 48 hrs by Annexin V-FITC/PI staining based flow cytometry (reference value: 3.53%); format: functional
HepG2 [11] = experiment: Induction of apoptosis in human HepG2 cells assessed as necrotic cells at 0.5 uM after 48 hrs by Annexin V-FITC/PI staining based flow cytometry (reference value: 1.81%); format: functional
HepG2 [12] = experiment: Induction of apoptosis in human HepG2 cells assessed as viable cells at 0.5 uM after 48 hrs by Annexin V-FITC/PI staining based flow cytometry (reference value: 91.69%); format: functional; details: HepG2, 48 h, read-out: Activity
HepG2 [13] = experiment: Induction of apoptosis in human HepG2 cells assessed as early apoptotic cells at 0.5 uM after 48 hrs by Annexin V-FITC/PI staining based flow cytometry (reference value: 2.97%); format: functional

pIC50 (MCF7) | pIC50 (HepG2 [1]) | pIC50 (A549) | pIC50 [2] | Compound | other results
– | – | – | 8.54 | COc1cc2c(Oc3ccc(NC(=O)c4cc5cccnc5n(-c5ccc(F)cc5)c4=O)cc3F)ccnc2cc1OCCCN1CCCCC1 | –
5.49 | < 4.40 | 5.37 | – | COc1cc2c(Oc3ccc(NC(=O)c4cc5cccnc5n(-c5ccc(Cl)cc5)c4=O)cc3F)ccnc2cc1OCCCN1CCOCC1 | –
4.98 | 5.04 | 4.71 | – | COc1ccc(-n2c(=O)c(C(=O)Nc3ccc(Oc4ccnc5cc(OCCCN6CCOCC6)c(OC)cc45)c(F)c3)cc3cccnc32)cc1 | –
6.21 | 5.70 | 5.38 | 8.00 | COc1cc2c(Oc3ccc(NC(=O)c4cc5cccnc5n(-c5ccc(Br)cc5)c4=O)cc3F)ccnc2cc1OCCCN1CCOCC1 | –
5.75 | 6.12 | 5.62 | 8.10 | COc1cc2c(Oc3ccc(NC(=O)c4cc5cccnc5n(-c5ccc(F)cc5)c4=O)cc3F)ccnc2cc1OCCCN1CCOCC1 | –
– | – | – | 7.50 | COc1cc2c(Oc3ccc(NC(=O)c4cc5cccnc5n(-c5ccc(F)cc5)c4=O)cc3F)ccnc2cc1OCCCN1CCC(C)CC1 | –

The next lines start with the molecule.

Compound | pIC50 (MCF7) | pIC50 (HepG2 [1]) | pIC50 (A549) | pIC50 [2] | other results
COc1cc2c(Oc3ccc(NC(=O)c4cc5cccnc5n(-c5ccc(Br)cc5F)c4=O)cc3F)ccnc2cc1OCCCN1CCOCC1 | 5.01 | < 4.40 | < 4.40 | – | –
COc1cc2c(Oc3ccc(NC(=O)c4cc5cccnc5n(-c5ccc(Br)cc5F)c4=O)cc3F)ccnc2cc1OCCCN1CCC(C)CC1 | – | – | – | 7.42 | –
COc1cc2c(Oc3ccc(NC(=O)c4cc5cccnc5n(-c5ccc(F)cc5)c4=O)cc3F)ccnc2cc1OCCCN1CCN(C)CC1 | – | – | – | 8.63 | pIC50 [3]: 8.36; pIC50 [4]: < 5.00; pIC50 [5]: 7.71; pIC50 [6]: 6.70; pIC50 [7]: 6.74; pIC50 [8]: 8.27; pIC50 [9]: 7.99
COc1cc2c(Oc3ccc(NC(=O)c4cc5cccnc5n(-c5ccccc5)c4=O)cc3F)ccnc2cc1OCCCN1CCOCC1 | < 4.40 | 4.94 | 4.78 | – | –
COc1cc2c(Oc3ccc(NC(=O)c4cc5cccnc5n(-c5ccc(F)c(Cl)c5)c4=O)cc3F)ccnc2cc1OCCCN1CCOCC1 | 5.95 | 5.01 | < 4.40 | – | –
COc1cc2c(Oc3ccc(NC(=O)C4(C(=O)Nc5ccc(F)cc5)CC4)cc3F)ccnc2cc1OCCCN1CCOCC1 [FORETINIB] | – | – | – | – | Activity (HepG2 [10]): 8.36%; Activity (HepG2 [11]): 0.64%; viability at 0.5 µM (HepG2 [12]): 72.5%; Activity (HepG2 [13]): 18.51%
COc1cc2c(Oc3ccc(NC(=O)c4cc5cccnc5n(-c5ccc(C(F)(F)F)cc5Cl)c4=O)cc3F)ccnc2cc1OCCCN1CCOCC1 | 5.03 | 5.38 | 5.38 | – | –
COc1cc2c(Oc3ccc(NC(=O)c4cc5cccnc5n(-c5ccc(Br)cc5)c4=O)cc3F)ccnc2cc1OCCCN1CCCCC1 | – | – | – | 7.53 | –
COc1cc2c(Oc3ccc(NC(=O)c4cc5cccnc5n(-c5ccc(Br)cc5F)c4=O)cc3F)ccnc2cc1OCCCN1CCN(C)CC1 | – | – | – | 8.19 | –
